This passage reports TGI results from PubChem BioAssay (NCI).

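Method: 48-hour compound exposure of cells in 96-well plates, five concentrations, linear interpolation of endpoints. The concentration for full growth arrest is given as TGI.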

Some test systems named below: ACHN renal; DLD-1 colon; EKVX NSCLC; KM20L2 colon; LOX IMVI melanoma; RPMI-8226 leukemia; SK-MEL-28 melanoma; SK-MEL-5 melanoma; UACC-62 melanoma; SF-268 CNS.
Common to all, as to test: NCI tumour cell line growth inhibition, 48 h

On to `Cn1nc(-c2ccccc2)c(C(=O)/C=C/c2ccc(Cl)cc2)c(N2CCCCC2)c1=O`, for which the TGI stood at 4.31 µM in the assay on ACHN renal; 7.08 µM in the assay with DLD-1 colon; 15.3 µM in the assay on EKVX NSCLC; 6.46 µM with KM20L2 colon; 6.09 µM with LOX IMVI melanoma; 5.52 µM in the assay on RPMI-8226 leukemia. The TGI was determined as 14.3 µM in the assay on SK-MEL-28 melanoma, 3.75 µM in the assay on SK-MEL-5 melanoma and 5.82 µM with UACC-62 melanoma.
On to `CC1=C[C@]2(O)C(=O)[C@H](C)C[C@H]3[C@@H](CC[C@@](C)(O)/C=C\2C1=O)C3(C)C`, for which the TGI is 54.6 µM in the assay on ACHN renal; 34.9 µM with DLD-1 colon; greater than 100 µM with EKVX NSCLC; 19.5 µM with KM20L2 colon; 34.6 µM in the assay on LOX IMVI melanoma; greater than 73.3 µM in the assay on RPMI-8226 leukemia. Besides, the TGI in the assay with SF-268 CNS worked out at 52.1 µM; in the assay on SK-MEL-28 melanoma it was 33.1 µM; in the assay on SK-MEL-5 melanoma it was 50.8 µM; in the assay on UACC-62 melanoma it was 30.6 µM.
Regarding `CCOc1ccc(N=Cc2ccc3cc(C)ccc3n2)cc1`, the TGI with ACHN renal was greater than 100 µM; with DLD-1 colon, greater than 100 µM; with EKVX NSCLC it was greater than 100 µM; with KM20L2 colon, greater than 100 µM; in the assay on LOX IMVI melanoma it was greater than 100 µM; in the assay on RPMI-8226 leukemia, 57.3 µM. For the same molecule, the TGI in the assay on SF-268 CNS, with SK-MEL-28 melanoma, in the assay with SK-MEL-5 melanoma and in the assay on UACC-62 melanoma was greater than 100 µM in each case.
Turning to `O=C1C=CC(=O)C12CCc1ccccc12`, the TGI in the assay with ACHN renal was greater than 100 µM; with DLD-1 colon, greater than 100 µM; in the assay on EKVX NSCLC it was greater than 100 µM; with KM20L2 colon, greater than 100 µM; in the assay with LOX IMVI melanoma, greater than 100 µM; with RPMI-8226 leukemia, 45.8 µM. Also, the TGI in the assay on SF-268 CNS, with SK-MEL-28 melanoma, in the assay on SK-MEL-5 melanoma and in the assay on UACC-62 melanoma was greater than 100 µM throughout.
With `CCN(CC)CCCNC(=O)C1COc2cc(-c3cc(=O)c4ccccc4o3)ccc2O1` (stereo not given), the TGI was greater than 100 µM in the assay with ACHN renal; greater than 100 µM in the assay with DLD-1 colon; greater than 100 µM in the assay with EKVX NSCLC; greater than 100 µM in the assay with KM20L2 colon; 48.2 µM with LOX IMVI melanoma; greater than 100 µM in the assay with RPMI-8226 leukemia. In addition, the TGI with SF-268 CNS was greater than 100 µM; in the assay with SK-MEL-28 melanoma it was 40.8 µM; with SK-MEL-5 melanoma it was 37.6 µM; in the assay with UACC-62 melanoma, greater than 100 µM.
`O=C(O)NC(c1ccccc1)C(NC(=O)c1ccccc1)c1ccccc1` (stereo not given): the TGI with ACHN renal, in the assay with DLD-1 colon, with EKVX NSCLC, in the assay with KM20L2 colon, in the assay on LOX IMVI melanoma and with RPMI-8226 leukemia was greater than 100 µM each time. The TGI in the assay with SF-268 CNS, with SK-MEL-28 melanoma and with UACC-62 melanoma was greater than 100 µM in each case.
`CCOC(=O)Cc1ccc2c(c1O)C(=O)c1c(ccc(CC(=O)OCC)c1O)C2=O`: the TGI with ACHN renal, in the assay with DLD-1 colon, in the assay on EKVX NSCLC, in the assay on KM20L2 colon, in the assay with LOX IMVI melanoma and in the assay with RPMI-8226 leukemia was greater than 100 µM throughout. Also, the TGI in the assay with SF-268 CNS, in the assay with SK-MEL-28 melanoma, with SK-MEL-5 melanoma and with UACC-62 melanoma was greater than 100 µM each time.
On to `CC(=O)c1cccc(C)c1C(=O)O`, for which the TGI with ACHN renal, in the assay on DLD-1 colon, in the assay with EKVX NSCLC, with KM20L2 colon, in the assay with LOX IMVI melanoma and in the assay with RPMI-8226 leukemia was greater than 100 µM each time. For the same molecule, the TGI in the assay with SF-268 CNS, in the assay on SK-MEL-28 melanoma, with SK-MEL-5 melanoma and with UACC-62 melanoma was greater than 100 µM each time.
On to `CCOC(=O)/C(=C\c1ccc(N(CCC#N)CCC#N)cc1)NC(=O)c1cc([N+](=O)[O-])ccc1Cl`, for which the TGI in the assay with ACHN renal, in the assay on DLD-1 colon, in the assay on EKVX NSCLC, in the assay on KM20L2 colon, in the assay with LOX IMVI melanoma and with RPMI-8226 leukemia was greater than 100 µM throughout. The TGI in the assay with SF-268 CNS, in the assay on SK-MEL-28 melanoma, in the assay on SK-MEL-5 melanoma and with UACC-62 melanoma was greater than 100 µM in each case.
`c1ccc2c(NCCCCCCNc3c4ccccc4nc4ccccc34)c3ccccc3nc2c1`: the TGI is 1.72 µM in the assay with ACHN renal; 3.29 µM with DLD-1 colon; 5.69 µM with EKVX NSCLC; 3.05 µM in the assay with KM20L2 colon; 1.45 µM in the assay with LOX IMVI melanoma; 0.25 µM in the assay with RPMI-8226 leukemia. Besides, the figures for the TGI in the assay with SF-268 CNS, in the assay on SK-MEL-5 melanoma and in the assay with UACC-62 melanoma were 2.71 µM, 2.86 µM and 2.08 µM, respectively.
With `Cc1cccc(C)c1CO`, the TGI with ACHN renal, in the assay with DLD-1 colon, in the assay on EKVX NSCLC, with KM20L2 colon, in the assay with LOX IMVI melanoma and in the assay on RPMI-8226 leukemia was greater than 100 µM each time. Moreover, the TGI with SF-268 CNS and in the assay with UACC-62 melanoma was greater than 100 µM throughout.
